Consider four compounds from PMC7026418, “The kinase polypharmacology landscape of clinical PARP inhibitors” (Scientific Reports, 2020).

Read-outs that look alike come from different tables or passages of the source.

Common to all, as to experiment: biochemical
Common to all, as to parameters: DiscoveRx KINOMEscan active site-directed competition binding; percent of control kinase bound to immobilised ligand

Experiment [1] deals with ROCK2 (Homo sapiens, UniProt O75116).
Experiment [2] addresses T1, DYRK2 (Homo sapiens, UniProt Q92630).
T1 sequence (Q92630 1-601): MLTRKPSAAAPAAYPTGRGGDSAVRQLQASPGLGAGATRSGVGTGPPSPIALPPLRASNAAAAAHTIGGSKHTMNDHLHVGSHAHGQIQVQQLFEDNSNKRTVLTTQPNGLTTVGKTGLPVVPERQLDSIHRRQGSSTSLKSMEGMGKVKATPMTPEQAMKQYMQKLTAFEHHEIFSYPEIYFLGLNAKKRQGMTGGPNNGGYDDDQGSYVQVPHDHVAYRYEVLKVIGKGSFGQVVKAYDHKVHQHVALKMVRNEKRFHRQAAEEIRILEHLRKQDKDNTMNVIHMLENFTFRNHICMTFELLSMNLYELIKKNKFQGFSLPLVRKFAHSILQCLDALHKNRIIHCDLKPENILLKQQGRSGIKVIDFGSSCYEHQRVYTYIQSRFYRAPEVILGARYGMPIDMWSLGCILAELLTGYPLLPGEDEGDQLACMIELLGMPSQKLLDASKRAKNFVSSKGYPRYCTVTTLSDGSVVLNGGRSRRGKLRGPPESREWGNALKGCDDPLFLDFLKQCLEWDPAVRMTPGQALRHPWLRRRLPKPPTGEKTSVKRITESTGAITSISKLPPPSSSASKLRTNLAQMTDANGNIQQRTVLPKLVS

In experiment [3] the target is PIM3 (Homo sapiens, UniProt Q86V86).
Experiment [4] has as its target ROS1 (Homo sapiens, UniProt P08922).
Experiment [5] addresses T2, TSSK1B (Homo sapiens, UniProt Q9BXA7).
T2 sequence (Q9BXA7 1-367): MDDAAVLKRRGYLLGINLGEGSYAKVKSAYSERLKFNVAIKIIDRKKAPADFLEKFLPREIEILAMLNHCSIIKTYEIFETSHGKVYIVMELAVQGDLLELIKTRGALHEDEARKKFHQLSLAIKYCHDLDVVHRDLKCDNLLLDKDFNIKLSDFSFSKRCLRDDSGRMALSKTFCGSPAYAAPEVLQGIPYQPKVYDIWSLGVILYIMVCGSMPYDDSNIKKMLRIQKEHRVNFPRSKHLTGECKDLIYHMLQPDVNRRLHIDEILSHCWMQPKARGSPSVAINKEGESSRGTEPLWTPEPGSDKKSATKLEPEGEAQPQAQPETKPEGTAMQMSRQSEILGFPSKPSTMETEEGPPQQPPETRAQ

The target of experiment [6] is T3, YANK2 (Homo sapiens, UniProt Q9NY57).
T3 construct: gene STK32B
T3 sequence (Q9NY57 whole entry): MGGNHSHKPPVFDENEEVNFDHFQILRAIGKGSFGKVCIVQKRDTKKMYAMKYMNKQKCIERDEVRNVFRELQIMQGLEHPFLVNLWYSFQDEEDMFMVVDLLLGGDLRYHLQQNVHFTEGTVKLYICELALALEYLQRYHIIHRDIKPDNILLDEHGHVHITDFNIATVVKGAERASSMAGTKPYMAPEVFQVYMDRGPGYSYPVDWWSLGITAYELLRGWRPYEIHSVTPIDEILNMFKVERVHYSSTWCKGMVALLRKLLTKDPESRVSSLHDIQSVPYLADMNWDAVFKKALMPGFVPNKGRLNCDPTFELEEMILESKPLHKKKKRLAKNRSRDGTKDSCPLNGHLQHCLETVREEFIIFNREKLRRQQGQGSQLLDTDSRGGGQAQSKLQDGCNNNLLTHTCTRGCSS

For experiment [7], the target named is T4, JAK1(JH1domain-catalytic) (Homo sapiens, UniProt P23458).
T4 construct: JH1domain-catalytic
T4 sequence (P23458 whole entry): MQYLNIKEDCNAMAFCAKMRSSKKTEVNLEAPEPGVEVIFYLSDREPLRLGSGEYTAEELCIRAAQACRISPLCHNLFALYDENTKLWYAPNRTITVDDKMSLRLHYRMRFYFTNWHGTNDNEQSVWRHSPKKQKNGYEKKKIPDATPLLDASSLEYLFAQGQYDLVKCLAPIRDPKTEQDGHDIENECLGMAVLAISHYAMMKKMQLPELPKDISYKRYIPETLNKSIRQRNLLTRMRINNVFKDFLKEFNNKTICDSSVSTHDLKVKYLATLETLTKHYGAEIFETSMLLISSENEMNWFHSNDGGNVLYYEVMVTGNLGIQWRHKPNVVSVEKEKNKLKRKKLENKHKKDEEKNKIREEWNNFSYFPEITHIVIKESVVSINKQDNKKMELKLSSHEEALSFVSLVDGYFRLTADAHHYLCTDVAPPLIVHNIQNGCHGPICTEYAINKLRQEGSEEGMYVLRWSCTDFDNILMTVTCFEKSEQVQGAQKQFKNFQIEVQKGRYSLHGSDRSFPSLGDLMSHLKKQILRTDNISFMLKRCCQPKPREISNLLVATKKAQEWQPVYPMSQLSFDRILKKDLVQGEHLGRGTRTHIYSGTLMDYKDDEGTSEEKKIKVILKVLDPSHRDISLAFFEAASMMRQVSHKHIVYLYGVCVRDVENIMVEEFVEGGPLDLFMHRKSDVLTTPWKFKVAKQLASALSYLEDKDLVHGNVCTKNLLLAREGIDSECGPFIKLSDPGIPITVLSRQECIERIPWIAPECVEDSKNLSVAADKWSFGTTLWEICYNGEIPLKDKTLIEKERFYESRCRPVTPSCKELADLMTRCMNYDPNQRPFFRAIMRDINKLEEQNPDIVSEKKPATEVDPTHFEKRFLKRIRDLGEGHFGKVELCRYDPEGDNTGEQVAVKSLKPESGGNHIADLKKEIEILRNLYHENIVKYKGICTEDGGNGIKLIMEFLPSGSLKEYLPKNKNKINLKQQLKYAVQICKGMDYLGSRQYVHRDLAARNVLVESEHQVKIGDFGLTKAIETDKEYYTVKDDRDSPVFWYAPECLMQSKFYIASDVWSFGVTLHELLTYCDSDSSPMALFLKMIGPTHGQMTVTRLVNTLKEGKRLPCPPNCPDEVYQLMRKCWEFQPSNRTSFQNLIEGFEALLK

In experiment [8] the target is BRAF (Homo sapiens, UniProt P15056).
The target in experiment [9] is T5, EPHB1 (Homo sapiens, UniProt P54762).
T5 sequence (P54762 1-984): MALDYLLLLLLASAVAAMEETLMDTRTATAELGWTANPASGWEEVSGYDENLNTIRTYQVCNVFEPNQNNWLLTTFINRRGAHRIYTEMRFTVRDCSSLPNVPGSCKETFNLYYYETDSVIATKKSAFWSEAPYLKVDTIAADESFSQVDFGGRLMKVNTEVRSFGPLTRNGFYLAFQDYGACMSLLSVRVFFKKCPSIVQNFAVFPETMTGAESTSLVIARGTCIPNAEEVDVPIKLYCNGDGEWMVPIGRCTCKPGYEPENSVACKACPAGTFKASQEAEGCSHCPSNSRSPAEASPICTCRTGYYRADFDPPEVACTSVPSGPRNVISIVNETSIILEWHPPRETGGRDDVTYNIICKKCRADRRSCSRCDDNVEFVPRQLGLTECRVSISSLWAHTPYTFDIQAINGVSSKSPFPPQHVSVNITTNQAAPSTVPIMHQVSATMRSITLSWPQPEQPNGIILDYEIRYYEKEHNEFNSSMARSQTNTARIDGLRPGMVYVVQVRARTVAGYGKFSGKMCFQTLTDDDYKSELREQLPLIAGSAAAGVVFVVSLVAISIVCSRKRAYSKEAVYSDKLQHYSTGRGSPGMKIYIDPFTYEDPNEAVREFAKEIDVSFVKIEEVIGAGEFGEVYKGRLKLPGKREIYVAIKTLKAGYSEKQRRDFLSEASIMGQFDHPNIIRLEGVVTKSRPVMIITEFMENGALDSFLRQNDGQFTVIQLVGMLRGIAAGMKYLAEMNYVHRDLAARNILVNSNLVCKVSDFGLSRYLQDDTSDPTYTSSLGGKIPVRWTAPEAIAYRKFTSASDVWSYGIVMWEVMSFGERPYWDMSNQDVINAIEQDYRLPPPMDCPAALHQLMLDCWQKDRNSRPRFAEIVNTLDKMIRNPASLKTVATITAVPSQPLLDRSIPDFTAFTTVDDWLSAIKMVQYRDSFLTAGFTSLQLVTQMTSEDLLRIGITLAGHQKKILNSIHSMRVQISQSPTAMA

Experiment [10] concerns the target CSNK1G2 (Homo sapiens, UniProt P78368).
Where [11] appears, read: read-out: Niraparib (MK-4827) / %Ctrl @ 10000nM.
[12] abbreviates: read-out: Olaparib / %Ctrl @ 10000nM.
Setting [13] is: read-out: Rucaparib / %Ctrl @ 10000nM, binding competition, % of control.
The mark [14] stands for this setting: read-out: Talazoparib (BMN 673) / %Ctrl @ 10000nM.

Chain of ROS1 (P08922 whole entry): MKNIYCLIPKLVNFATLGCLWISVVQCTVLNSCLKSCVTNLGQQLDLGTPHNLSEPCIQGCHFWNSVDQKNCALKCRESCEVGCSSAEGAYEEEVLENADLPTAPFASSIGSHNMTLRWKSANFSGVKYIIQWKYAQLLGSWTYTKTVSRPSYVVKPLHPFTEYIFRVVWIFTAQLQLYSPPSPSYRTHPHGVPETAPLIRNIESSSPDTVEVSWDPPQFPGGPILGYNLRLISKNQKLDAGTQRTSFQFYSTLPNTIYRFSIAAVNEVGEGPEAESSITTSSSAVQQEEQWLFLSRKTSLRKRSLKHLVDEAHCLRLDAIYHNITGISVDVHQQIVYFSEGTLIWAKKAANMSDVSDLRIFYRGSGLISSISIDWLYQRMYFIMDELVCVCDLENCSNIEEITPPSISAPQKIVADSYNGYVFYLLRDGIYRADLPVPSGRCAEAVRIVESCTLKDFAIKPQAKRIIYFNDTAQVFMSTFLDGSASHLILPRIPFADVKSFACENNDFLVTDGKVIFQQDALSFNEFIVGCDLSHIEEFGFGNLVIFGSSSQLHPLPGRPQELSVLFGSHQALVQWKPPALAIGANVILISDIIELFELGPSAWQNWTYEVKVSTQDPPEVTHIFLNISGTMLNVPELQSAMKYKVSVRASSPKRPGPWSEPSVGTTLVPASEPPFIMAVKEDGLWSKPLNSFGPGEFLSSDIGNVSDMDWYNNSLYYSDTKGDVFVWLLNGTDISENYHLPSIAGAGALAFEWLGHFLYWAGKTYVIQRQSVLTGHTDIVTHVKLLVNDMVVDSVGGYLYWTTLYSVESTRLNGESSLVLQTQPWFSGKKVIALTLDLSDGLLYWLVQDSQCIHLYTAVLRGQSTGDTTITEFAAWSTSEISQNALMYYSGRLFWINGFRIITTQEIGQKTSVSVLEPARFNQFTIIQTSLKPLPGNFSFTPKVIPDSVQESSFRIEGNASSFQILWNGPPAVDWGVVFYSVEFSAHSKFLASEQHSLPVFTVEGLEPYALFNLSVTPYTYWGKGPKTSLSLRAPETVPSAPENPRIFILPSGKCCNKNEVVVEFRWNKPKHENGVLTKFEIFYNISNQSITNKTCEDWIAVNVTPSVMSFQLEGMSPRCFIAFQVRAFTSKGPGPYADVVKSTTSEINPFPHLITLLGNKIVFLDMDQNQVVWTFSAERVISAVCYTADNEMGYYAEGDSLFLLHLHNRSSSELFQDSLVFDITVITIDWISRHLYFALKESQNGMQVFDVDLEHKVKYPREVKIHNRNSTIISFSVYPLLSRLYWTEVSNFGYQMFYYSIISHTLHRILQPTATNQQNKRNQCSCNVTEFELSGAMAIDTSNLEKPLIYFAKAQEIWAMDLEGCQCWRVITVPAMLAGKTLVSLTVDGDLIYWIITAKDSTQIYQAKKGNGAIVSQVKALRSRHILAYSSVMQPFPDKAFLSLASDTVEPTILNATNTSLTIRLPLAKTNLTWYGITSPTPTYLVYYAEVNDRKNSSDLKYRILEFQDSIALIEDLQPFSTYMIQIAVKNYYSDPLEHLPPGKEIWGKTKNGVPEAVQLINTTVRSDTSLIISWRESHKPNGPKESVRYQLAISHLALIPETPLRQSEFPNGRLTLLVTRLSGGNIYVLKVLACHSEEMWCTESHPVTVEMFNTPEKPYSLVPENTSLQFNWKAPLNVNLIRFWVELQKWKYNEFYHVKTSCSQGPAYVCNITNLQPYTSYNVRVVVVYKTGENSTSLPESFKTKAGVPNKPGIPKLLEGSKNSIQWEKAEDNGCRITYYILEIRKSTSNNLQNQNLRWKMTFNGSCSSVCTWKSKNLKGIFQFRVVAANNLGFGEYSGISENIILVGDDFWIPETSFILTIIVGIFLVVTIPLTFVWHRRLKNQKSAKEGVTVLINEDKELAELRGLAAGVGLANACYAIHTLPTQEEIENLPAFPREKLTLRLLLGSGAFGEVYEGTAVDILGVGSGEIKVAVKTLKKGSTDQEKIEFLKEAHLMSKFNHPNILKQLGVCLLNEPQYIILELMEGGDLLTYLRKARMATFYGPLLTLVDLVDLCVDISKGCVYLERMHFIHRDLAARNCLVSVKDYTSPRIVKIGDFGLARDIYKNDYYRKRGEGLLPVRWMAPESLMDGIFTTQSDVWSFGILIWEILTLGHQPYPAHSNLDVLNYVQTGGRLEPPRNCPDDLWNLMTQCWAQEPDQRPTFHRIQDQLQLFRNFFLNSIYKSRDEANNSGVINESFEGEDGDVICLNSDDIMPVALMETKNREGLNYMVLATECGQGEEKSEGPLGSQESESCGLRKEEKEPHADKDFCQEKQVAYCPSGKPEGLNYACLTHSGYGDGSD
Chain of CSNK1G2 (P78368 whole entry): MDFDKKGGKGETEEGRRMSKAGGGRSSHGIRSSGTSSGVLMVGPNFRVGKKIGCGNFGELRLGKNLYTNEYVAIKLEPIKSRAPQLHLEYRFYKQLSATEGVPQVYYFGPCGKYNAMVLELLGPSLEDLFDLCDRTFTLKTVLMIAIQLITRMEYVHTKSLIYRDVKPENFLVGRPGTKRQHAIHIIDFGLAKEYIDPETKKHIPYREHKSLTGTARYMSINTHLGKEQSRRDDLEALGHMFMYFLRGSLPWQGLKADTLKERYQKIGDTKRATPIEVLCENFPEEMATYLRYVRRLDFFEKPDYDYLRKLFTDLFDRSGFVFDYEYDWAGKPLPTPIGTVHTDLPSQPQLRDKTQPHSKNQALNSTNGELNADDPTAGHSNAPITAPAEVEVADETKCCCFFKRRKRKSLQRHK

On to `NC(=O)c1cccc2cn(-c3ccc([C@@H]4CCCNC4)cc3)nc12` [Niraparib], for which the percent of control binding at 10 µM in experiment [1] (setting [11]) was determined as 73%; in experiment [2] (setting [11]), 54%; in experiment [3] (setting [11]), 17%; in [4] (setting [11]) it was 80%; in experiment [5] (setting [11]) it was 65%; in experiment [6] (setting [11]) it was 100%. Also, the percent of control binding at 10 µM in experiment [7] (setting [11]) is 100%; in experiment [8] (setting [11]), 95%; in [9] (setting [11]), 76%; in [10] (setting [11]), 79%.
On to `O=C(c1cc(Cc2n[nH]c(=O)c3ccccc23)ccc1F)N1CCN(C(=O)C2CC2)CC1` [Olaparib], for which the percent of control binding at 10 µM in experiment [1] (setting [12]) stood at 75%; in [2] (setting [12]), 99%; in experiment [3] (setting [12]) it was 99%; in experiment [4] (setting [12]), 97%; in experiment [5] (setting [12]), 100%; in [6] (setting [12]), 94%. In addition, the percent of control binding at 10 µM in experiment [7] (setting [12]) worked out at 81%; in experiment [8] (setting [12]), 76%; in experiment [9] (setting [12]), 99%; in [10] (setting [12]), 81%.
Regarding `CNCc1ccc(-c2[nH]c3cc(F)cc4c3c2CCNC4=O)cc1` [Rucaparib], the percent of control binding at 10 µM came to 85% in [1] (setting [13]); 38% in experiment [2] (setting [13]); 82% in experiment [4] (setting [13]); 88% in [5] (setting [13]); 100% in experiment [6] (setting [13]); 100% in experiment [7] (setting [13]). For the same compound, the percent of control binding at 10 µM in experiment [8] (setting [13]) turned out to be 66%; in [9] (setting [13]) it was 100%; in [10] (setting [13]) it was 89%.
With `Cn1ncnc1[C@H]1c2n[nH]c(=O)c3cc(F)cc(c23)N[C@@H]1c1ccc(F)cc1` [Talazoparib], the percent of control binding at 10 µM in experiment [1] (setting [14]) turned out to be 100%; in [2] (setting [14]), 86%; in [3] (setting [14]) it was 100%; in experiment [4] (setting [14]), 94%; in [5] (setting [14]), 94%; in experiment [6] (setting [14]), 91%. The percent of control binding at 10 µM stood at 100% in [7] (setting [14]), 67% in experiment [8] (setting [14]), 94% in [9] (setting [14]) and 91% in experiment [10] (setting [14]).
